Laboratory results reported in patent US20120035183A1, “Cancer Treatment Method” (priority 2008, published 2012).

Assays:
[1] = tested on: LL1-BT-474-J4 (J4) breast cell clone; assay: CellTiter-Glo cell growth inhibition assay, LL1-BT-474-J4; assay type: cell-based; details: for sensitivity of the cell line to the agent (in words): LL1-BT-474-J4; for IC50: 72 h
[2] = tested on: JIMT-1 breast tumor cell line; assay: CellTiter-Glo cell growth inhibition assay, JIMT-1; assay type: cell-based; details: for IC50: Homo sapiens, JIMT-1, 72 h, JIMT1, breast, basal, HER2+, 3 days
Protocol: (§1) Breast tumor cell lines, BT-474, SK-Br-3, MDA-MB-453, MDA-MB-231 and T47D and head and neck squamous cell carcinoma line, SCC15 were purchased from the American Type Culture Collection.
(§2) BT-474, SK-Br-3, JimT-1, MDA-MB-453, MDA-MB-231 and T47D and SCC15 were cultured in a humidified incubator at 37° C. in 95% air, 5% CO2 in the RPMI 1640 containing 10% fetal bovine serum (FBS) media.
(§3) Cell growth inhibition was determined via CellTiter-Glo cell viability assays. Cells were seeded in a 96-well tissue culture plate (NUNC 136102) with the following plating densities in their respective media at 1000 or 2000 cells/well dependent on cell growth rate. […] The cells were incubated in the presence of the compounds for 3 days. ATP levels were determined by adding Cell Titer Glo® (Promega), incubating for 20 minutes then a luminescent signal was read on the SpectraMax M5 plate with a 0.5 sec integration time. Cell growth was calculated relative to vehicle (DMSO) treated control wells. […] When the CI value was between 0.9 and 1.10, the combination of the two agents was deemed additive. Combination Index values less than 0.9 were considered indicative of synergy. Combination Index values>1.10 indicated antagonism.

[3] = tested on: SK-BR-3 breast tumor cell line; assay: CellTiter-Glo cell growth inhibition assay, SK-BR-3; assay type: cell-based; details: Homo sapiens, 72 h, luminal, HER2+, 3 days
Protocol: as §1, §2, §3

[4] = tested on: BT-474 breast tumor cell line; assay: CellTiter-Glo cell growth inhibition assay, BT-474; assay type: cell-based; details: for IC50: Homo sapiens, BT-474, 72 h, BT474, breast, luminal, HER2+, 3 days
Protocol: as §1, §2, §3

[5] = tested on: MDA-MB-453 breast tumor cell line; assay: CellTiter-Glo cell growth inhibition assay, MDA-MB-453; assay type: cell-based; details: Homo sapiens, 72 h, luminal, HER2+, 3 days
Protocol: as §1, §2, §3

[6] = tested on: MDA-MB-231 breast tumor cell line; assay: CellTiter-Glo cell growth inhibition assay, MDA-MB-231; assay type: cell-based; details: Homo sapiens, 72 h, post EMT, HER normal, 3 days
Protocol: as §1, §2, §3

[7] = tested on: T47D breast tumor cell line; assay: CellTiter-Glo cell growth inhibition assay, T47D; assay type: cell-based; details: Homo sapiens, 72 h, luminal, HER normal, 3 days
Protocol: as §1, §2, §3

[8] = tested on: SCC15 head and neck squamous cell carcinoma line; assay: cells; details: Homo sapiens, SCC-15, 72 h, read-out: IC50 (cell growth inhibition)
Protocol: as §1, §2, §3

[9] = tested on: HN5C2 head and neck tumor cell line; assay: CellTiter-Glo cell growth inhibition assay, HN5C2; assay type: cell-based
EGFR and erbB2 kinases = details: Rusnak et al., 2001b, Xia et al., 2002; cited from earlier work

Row | Structure (SMILES) | sensitivity of the cell line to the agent (in words) [1] | IC50 [2] | IC50 [3] | IC50 [4] | IC50 [5] | IC50 [6] | IC50 [7] | IC50 [1] | IC50 [8] | sensitivity of the cell line to the agent (in words) ([2]; JIMT-1) | sensitivity of the cell line to the agent (in words) ([4]; BT-474) | IC50 ([9]; 72 h) | sensitivity of the cell line to the agent (in words) ([9]; HN5C2) | kinase inhibition in human xenograft studies (EGFR and erbB2 kinases)
1 | CC(=O)O[C@H]1C(=O)[C@@]2(C)[C@H]([C@H](OC(=O)c3ccccc3)[C@]3(O)C[C@H](OC(=O)[C@H](O)[C@@H](NC(=O)c4ccccc4)c4ccccc4)C(C)=C1C3(C)C)[C@]1(OC(C)=O)CO[C@@H]1C[C@@H]2O [taxol] | retains sensitivity |  |  |  |  |  |  |  |  |  |  |  |  | 
2 | COc1cc2ncnc(Nc3ccc(F)c(Cl)c3)c2cc1OCCCN1CCOCC1 [gefitinb] | resistant |  |  |  |  |  |  |  |  |  |  |  |  | 
3 | Cc1nc(Nc2ncc(C(=O)Nc3c(C)cccc3Cl)s2)cc(N2CCN(CCO)CC2)n1 [Dasatinib, N-(2-chloro-6-methylphenyl)-2-[[6-[4-(2-hydroxyethyl)-1-piperazinyl]-2-methyl-4-pyrimidinyl]amino]-5-thiazolecarboxamide,monohydrate] |  | 0.4 µM | 6.64 µM | 10.1 µM | > 10 µM | 0.23 µM | 8.96 µM | > 10 µM | 0.06 µM |  |  |  |  | 
4 | CS(=O)(=O)CCNCc1ccc(-c2ccc3ncnc(Nc4ccc(OCc5cccc(F)c5)c(Cl)c4)c3c2)o1 [Lapatinib, N-{3-chloro-4-[(3-fluorobenzyl)oxy]phenyl}-6-[5-({[2-(methanesulphonyl)ethyl]amino}methyl)-2-furyl]-4-quinazolinamine] | resistant | 14.7 µM | 0.22 µM | 0.09 µM | 4.79 µM | > 10 µM | > 10 µM | 10.9 µM |  | resistant | highly sensitive | 9.78 µM | resistant | dose-dependent kinase inhibition
